From patent US20220305025A1, “PHOSPHATIDYLSERINE BINDING MOLECULES BLOCK IMMUNE SUPPRESSION OF TUMOR ASSOCIATED EXOSOMES” (priority 2019, published 2022)
“Also recorded” adds a separate entry of the source. Where two headings read alike, the source gives them in different places.

Tests used:
[1] = mouse, in vivo, 64 mg/kg
From the text: (§1) Mice were euthanized 14 days after treatment with the drugs.

[2] = PS binding avidity
[3] = Systemic organ toxicity study in mice; details: dose 64 mg/kg
From the text: as §1

[4] = system: DM6-Mut tumor xenografts; details: for tumor escape / tumor growth: NSG mice bearing DM6-Mut xenografts treated with TKT cells, ExoBlock 64 mg/kg i.p., nivolumab 10 mg/kg
From the text: (A) Experimental scheme and timeline (B-C) Tumor burdens on respective days in the X-mouse model in anti-PD-1 experiment (B) or the IL-12 experiment (C).
The X mouse model was established to allow for the rapid generation of human tumors and an in vivo method of evaluation of the anti-tumor responses of patient-derived T cells to patient tumor-specific peptides expressed by the established tumors.
There are 7 different T cells derived for 3 different patients available for our studies (Table 1). […] The melanoma tumor target cells (DM6) are either transduced with a tandem mini-gene expressing GFP or with luciferase and each are genetically modified to express either the mutated peptide (DM6-Mut), tumor target or the wild type peptide (DM6-WT) control target. Tumor growth in the X mouse model is monitored either by post-mortem quantification of GFP fluorescence in the omentum or by quantification of luciferase-dependent bioluminescence of the mice by live imaging.
The X-mouse model was used to test the efficacy of ExoBlock. ExoBlock was injected i.p. into NSG mice bearing DM6-Mut tumor xenografts and treated with TKT cells.

[5] = system: tumor associated exosomes / T cells; assay: Reversal of exosome-mediated arrest of T cell activation (CD3/CD28-activated PBL with exosomes)
Protocol: PBL were either unactivated (Unt) or activated for 2 h (hours) with immobilized antibodies to CD3 and CD28 with exosomes (Exo), exosomes with Zn-T-DPA and Exoblock (Exo+Zn-T-DPA and Exo+ExoBlock) or without (No Exo) exosomes. NFκB expression was detected using confocal microscopy.
T cells from normal donor peripheral blood leukocytes (NDPBL) were activated for 2 h with immobilized antibodies to CD3 and CD28 in the presence or absence of exosomes and 10 μM ExoBlock. The percentage of activation was determined by monitoring the upregulation of CD69. Percentage of inhibition and reversal were calculated.

[6] = system: DM6-Mut cells; assay: Direct effect on tumor target cells in vitro; assay type: cell-based, human; details: at the doses used
[7] = system: apoptotic cells (Jurkat cells); details: Jurkat cells treated with 10 μM Etoposide for 20 h; equimolar or titrating amounts
Protocol: Jurkat cells were treated with 10 μM Etoposide for 20 h to induce apoptosis. The cells were then stained with PSVue with equimolar or titrating molar amounts of ExoBlock. Sytox Red was used to eliminate dead cells from the analysis. The experiment was done in triplicate wells.

| Substance | histopathology of organs [1] | avidity of PS binding [2] | systemic organ toxicity (NOAEL) [3] | tumor escape / tumor growth [4] | change in tumor burden ([4]; day 25, 64 mg/kg i.p.) | interference with anti-tumor responses of tumor-specific T cells ([4]; mouse model) | toxicities in pre-clinical efficacy studies ([4]; mouse model) | batch consistency of reversal of immunosuppressive effect of exosomes ([5]; 10 μM ExoBlock, CD69 upregulation, NDPBL T cells) | blocking exosomal immune suppression in vitro ([5]; PBL activated 2 h with immobilized antibodies to CD3 and CD28 with exosomes) | reversal of the exosome-mediated arrest of T cell function ([5]; comparative studies, FIG. 2A-C) | direct killing / suppression of tumor target cells [6] | competitive inhibition of PSVue 499 binding [7] | tumor escape / tumor growth ([4]; listed as anti-PD-1) |
| --- | --- | --- | --- | --- | --- | --- | --- | --- | --- | --- | --- | --- | --- |
| (ZnDPA)6-DP-15K [ExoBlock] | No pathology was observed | bind PS with a high avidity; also recorded: greater avidity to PS as compared to Zn-T-DPA | NOAEL was observed | significantly delayed tumor escape; also recorded: suppresses tumor growth and has comparable efficacy to anti-PD1 treatment | two-fold change in tumor burden | does not interfere with the anti-tumor responses of the tumor-specific T cells | no detectable toxicities | consistent in their ability to reverse immunosuppressive effect of exosomes | more effective than both anti-PS antibody and annexin V; also recorded: inhibits exosome-mediated arrest of T cell activation | 75-96% | does not directly kill the tumor target cells; also recorded: no direct suppressive effect | competitively inhibits binding of PSVue 499 to apoptotic cells in a dose-dependent manner |  |
| nivolumab [reference compound] |  |  |  | enhanced the tumor suppression and delayed, but did not prevent tumor recurrence |  |  |  |  |  |  |  |  | delay tumor escape |
